Results published in US10890591B2, “Methods and dose packs for monitoring medication adherence” (Synapse Biosciences, LLC, priority 2016, dated 2021).

Legend:
clinical [1] = settings: human, in vivo
Text: (§1) All other markers were obtained from commercial sources. Urine and saliva were collected prior to each day's dosing of marker confirming the presence or absence of markers before the experiment started. […] The presence of all 7 markers at day 8 would confirm that all markers were ingested in the previous 7 day one week period.
(§2) Healthy volunteers with no recent exposure to the markers who were not currently taking prescribed medications, OTC medications or vitamins and supplements were chosen. Exposure to the markers more than one month before starting the experiment was allowed and no dietary restrictions were required. Subjects were given a 7 day blister pack with markers sequenced in the order above. Subjects verbally confirmed they understood the urine and saliva collection procedures. Instructions printed on the marker blister pack instructed subjects to collect urine and saliva each morning before they took the daily dose of marker. They were also instructed to take the daily dose of marker close to the same time each day.

clinical [2] = settings: human, in vivo; remark: listed apart in the source
Text: as §1, §2

With CNC(=C[N+](=O)[O-])NCCSCc1ccc(CN(C)C)o1 [Ranitidine] the “Subject C, Urine Results” value (clinical [1]; 1 day) was 0 ng/m, the “Subject D, Urine Results” value (clinical [1]; 1 day) was 0 ng/m and the “Subject C, Urine Results” value (clinical [1]; 2 day) was 4930 ng/m. The “Subject D, Urine Results” value (clinical [1]; 2 day) was 4910 ng/m, the “Subject C, Urine Results” value (clinical [1]; 3 day) was 492 ng/m and the “Subject D, Urine Results” value (clinical [1]; 3 day) was 300 ng/m. For the same compound, the “Subject C, Urine Results” value (clinical [1]; 4 day) was 68.3 ng/m, the “Subject D, Urine Results” value (clinical [1]; 4 day) was 51.5 ng/m and the “Subject C, Urine Results” value (clinical [1]; 5 day) was 41.9 ng/m. For the same compound, the “Subject D, Urine Results” value (clinical [1]; 5 day) was 39.4 ng/m, the “Subject C, Urine Results” value (clinical [1]; 6 day) was 39.6 ng/m and the “Subject D, Urine Results” value (clinical [1]; 6 day) was 22.6 ng/m. For the same compound, the “Subject C, Urine Results” value (clinical [1]; 7 day) was 25.2 ng/m, the “Subject D, Urine Results” value (clinical [1]; 7 day) was 14 ng/m and the “Subject C, Urine Results” value (clinical [1]; 8 day) was 23.5 ng/m. For the same compound, the “Subject D, Urine Results” value (clinical [1]; 8 day) was 12.1 ng/m, the concentration at 1 day (clinical [1]; Average of Urine Samples) was 0 ng/mL and the concentration at 2 day (clinical [1]; Average of Urine Samples) was 3720 ng/mL. The concentration at 3 day (clinical [1]; Average of Urine Samples) was 351 ng/mL, the concentration at 4 day (clinical [1]; Average of Urine Samples) was 56.5 ng/mL and the concentration at 5 day (clinical [1]; Average of Urine Samples) was 40.7 ng/mL. The concentration at 6 day (clinical [1]; Average of Urine Samples) was 34.3 ng/mL, the concentration at 7 day (clinical [1]; Average of Urine Samples) was 13.9 ng/mL and the concentration at 8 day (clinical [1]; Average of Urine Samples) was 10.4 ng/mL. For the same compound, the concentration at 1 day (clinical [1]; Subject A, Urine Results) was 0 ng/mL, the concentration at 2 day (clinical [1]; Subject A, Urine Results) was 801 ng/mL and the concentration at 3 day (clinical [1]; Subject A, Urine Results) was 156 ng/mL. The concentration at 4 day (clinical [1]; Subject A, Urine Results) was 63.4 ng/mL, the concentration at 5 day (clinical [1]; Subject A, Urine Results) was 61.8 ng/mL and the concentration at 6 day (clinical [1]; Subject A, Urine Results) was 58.5 ng/mL. It also gave a concentration at 7 day (clinical [1]; Subject A, Urine Results) of 11.2 ng/mL, a concentration at 8 day (clinical [1]; Subject A, Urine Results) of 1.16 ng/mL and a concentration at 1 day (clinical [1]; Subject B, Urine Results) of 0 ng/mL. It also gave a concentration at 3 day (clinical [1]; Subject B, Urine Results) of 456 ng/mL, a concentration at 1 day (clinical [2]) of 0 ng/mL and a concentration at 2 day (clinical [2]) of 16.8 ng/mL. It also gave a concentration at 3 day (clinical [2]) of 1.56 ng/mL, a concentration at 4 day (clinical [2]) of 0.562 ng/mL and a concentration at 5 day (clinical [2]) of 0.366 ng/mL. It also gave a concentration at 6 day (clinical [2]) of 0.176 ng/mL, a concentration at 7 day (clinical [2]) of 0.0757 ng/mL and a concentration at 8 day (clinical [2]) of 0.048 ng/mL.

For Cc1cc2nc3c(=O)[nH]c(=O)nc-3n(C[C@H](O)[C@H](O)[C@H](O)CO)c2cc1C [Riboflavin], the “Subject C, Urine Results” value (clinical [1]; 1 day) was 1210 ng/m, the “Subject D, Urine Results” value (clinical [1]; 1 day) was 819 ng/m and the “Subject C, Urine Results” value (clinical [1]; 2 day) was 4940 ng/m. For the same compound, the “Subject D, Urine Results” value (clinical [1]; 2 day) was 1290 ng/m, the “Subject C, Urine Results” value (clinical [1]; 3 day) was 3150 ng/m and the “Subject D, Urine Results” value (clinical [1]; 3 day) was 5190 ng/m. For the same compound, the “Subject C, Urine Results” value (clinical [1]; 4 day) was 3150 ng/m, the “Subject D, Urine Results” value (clinical [1]; 4 day) was 4330 ng/m and the “Subject C, Urine Results” value (clinical [1]; 5 day) was 1230 ng/m. The “Subject D, Urine Results” value (clinical [1]; 5 day) was 1730 ng/m, the “Subject C, Urine Results” value (clinical [1]; 6 day) was 1680 ng/m and the “Subject D, Urine Results” value (clinical [1]; 6 day) was 2120 ng/m. For the same compound, the “Subject C, Urine Results” value (clinical [1]; 7 day) was 4450 ng/m, the “Subject D, Urine Results” value (clinical [1]; 7 day) was 3200 ng/m and the “Subject C, Urine Results” value (clinical [1]; 8 day) was 9920 ng/m. For the same compound, the “Subject D, Urine Results” value (clinical [1]; 8 day) was 3310 ng/m, the concentration at 1 day (clinical [1]; Average of Urine Samples) was 2240 ng/mL and the concentration at 2 day (clinical [1]; Average of Urine Samples) was 2490 ng/mL. The concentration at 3 day (clinical [1]; Average of Urine Samples) was 2960 ng/mL, the concentration at 4 day (clinical [1]; Average of Urine Samples) was 5130 ng/mL and the concentration at 5 day (clinical [1]; Average of Urine Samples) was 2110 ng/mL. The concentration at 6 day (clinical [1]; Average of Urine Samples) was 2270 ng/mL, the concentration at 7 day (clinical [1]; Average of Urine Samples) was 3100 ng/mL and the concentration at 8 day (clinical [1]; Average of Urine Samples) was 5710 ng/mL. For the same compound, the concentration at 3 day (clinical [1]; Subject B, Urine Results) was 3040 ng/mL, the concentration at 1 day (clinical [2]) was 85.5 ng/mL and the concentration at 2 day (clinical [2]) was 92 ng/mL. For the same compound, the concentration at 3 day (clinical [2]) was 58.2 ng/mL, the concentration at 4 day (clinical [2]) was 45.5 ng/mL and the concentration at 5 day (clinical [2]) was 37.3 ng/mL. For the same compound, the concentration at 6 day (clinical [2]) was 85.5 ng/mL, the concentration at 7 day (clinical [2]) was 40.8 ng/mL and the concentration at 8 day (clinical [2]) was 43.1 ng/mL.
